The values that follow come from patent US11352350B2, “IRAK degraders and uses thereof” (Kymera Therapeutics, Inc., priority 2018, dated 2022).

Where two headings read alike, the source gives them in different places.

One assay has as its system U2932. Description: U2932 viability, CTG. It counts as cell-based.
The test system of another assay is OCI-LY19. Nature of the assay: OCI-LY19 viability, CTG. It counts as cell-based.
The target of assay [1] is T1, IRAK4 (Homo sapiens (Human), UniProt Q9NWZ3). Description: IRAK4 WB degradation (DC50). It counts as cell-based.
T1 sequence (Q9NWZ3 whole entry): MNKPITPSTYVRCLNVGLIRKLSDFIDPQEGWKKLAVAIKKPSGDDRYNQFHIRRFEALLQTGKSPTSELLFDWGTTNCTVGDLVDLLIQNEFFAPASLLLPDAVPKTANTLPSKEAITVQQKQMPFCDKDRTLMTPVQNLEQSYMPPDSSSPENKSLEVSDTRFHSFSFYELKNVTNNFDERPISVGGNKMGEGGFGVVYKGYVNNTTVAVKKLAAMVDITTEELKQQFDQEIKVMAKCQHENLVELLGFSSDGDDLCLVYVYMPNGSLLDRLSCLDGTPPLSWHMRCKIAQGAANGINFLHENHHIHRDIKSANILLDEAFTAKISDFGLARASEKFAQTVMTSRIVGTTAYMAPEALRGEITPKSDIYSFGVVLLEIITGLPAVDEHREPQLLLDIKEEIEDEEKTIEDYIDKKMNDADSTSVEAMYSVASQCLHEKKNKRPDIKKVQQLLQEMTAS
The test system of another assay is SU-DHL6. Description: SU-DHL6 viability, CTG. The assay is classed as cell-based.
Assay [2] has as its target T2, IKAROS (Homo sapiens (Human), UniProt Q13422+Q96SW2). Nature of the assay: IKAROS degradation in OCI-LY10 (DC50). It counts as cell-based.
The target of assay [3] is T3, AIOLOS (Homo sapiens (Human), UniProt Q96SW2+Q9UKT9). Nature of the assay: AIOLOS degradation in OCI-LY10 (DC50). It counts as cell-based.
T3 sequence (Q9UKT9 whole entry): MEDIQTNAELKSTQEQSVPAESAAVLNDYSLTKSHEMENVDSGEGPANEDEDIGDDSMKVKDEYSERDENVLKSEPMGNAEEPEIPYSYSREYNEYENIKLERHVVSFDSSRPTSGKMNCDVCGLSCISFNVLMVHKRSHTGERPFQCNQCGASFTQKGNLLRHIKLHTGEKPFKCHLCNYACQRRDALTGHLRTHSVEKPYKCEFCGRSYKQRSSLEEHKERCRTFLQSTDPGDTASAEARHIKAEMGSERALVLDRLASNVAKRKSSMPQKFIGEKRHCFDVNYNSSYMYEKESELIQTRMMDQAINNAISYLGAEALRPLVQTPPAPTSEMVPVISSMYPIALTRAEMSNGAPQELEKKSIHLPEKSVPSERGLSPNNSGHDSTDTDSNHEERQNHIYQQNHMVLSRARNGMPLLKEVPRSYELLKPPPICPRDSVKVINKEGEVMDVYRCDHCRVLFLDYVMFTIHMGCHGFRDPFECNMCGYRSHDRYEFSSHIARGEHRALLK
T3 sequence (Q96SW2 whole entry): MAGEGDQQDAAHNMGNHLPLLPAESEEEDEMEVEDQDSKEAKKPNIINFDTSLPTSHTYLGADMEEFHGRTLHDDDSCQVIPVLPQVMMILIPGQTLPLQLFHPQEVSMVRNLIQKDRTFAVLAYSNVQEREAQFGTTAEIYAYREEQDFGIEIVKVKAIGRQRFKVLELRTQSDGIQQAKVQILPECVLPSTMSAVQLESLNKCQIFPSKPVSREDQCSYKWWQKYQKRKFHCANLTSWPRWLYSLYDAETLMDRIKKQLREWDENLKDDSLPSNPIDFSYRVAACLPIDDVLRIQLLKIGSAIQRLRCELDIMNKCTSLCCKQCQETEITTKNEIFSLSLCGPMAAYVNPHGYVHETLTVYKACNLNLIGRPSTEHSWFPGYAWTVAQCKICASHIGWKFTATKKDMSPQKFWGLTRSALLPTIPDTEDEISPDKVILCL
T3 sequence (Q16531 whole entry partner): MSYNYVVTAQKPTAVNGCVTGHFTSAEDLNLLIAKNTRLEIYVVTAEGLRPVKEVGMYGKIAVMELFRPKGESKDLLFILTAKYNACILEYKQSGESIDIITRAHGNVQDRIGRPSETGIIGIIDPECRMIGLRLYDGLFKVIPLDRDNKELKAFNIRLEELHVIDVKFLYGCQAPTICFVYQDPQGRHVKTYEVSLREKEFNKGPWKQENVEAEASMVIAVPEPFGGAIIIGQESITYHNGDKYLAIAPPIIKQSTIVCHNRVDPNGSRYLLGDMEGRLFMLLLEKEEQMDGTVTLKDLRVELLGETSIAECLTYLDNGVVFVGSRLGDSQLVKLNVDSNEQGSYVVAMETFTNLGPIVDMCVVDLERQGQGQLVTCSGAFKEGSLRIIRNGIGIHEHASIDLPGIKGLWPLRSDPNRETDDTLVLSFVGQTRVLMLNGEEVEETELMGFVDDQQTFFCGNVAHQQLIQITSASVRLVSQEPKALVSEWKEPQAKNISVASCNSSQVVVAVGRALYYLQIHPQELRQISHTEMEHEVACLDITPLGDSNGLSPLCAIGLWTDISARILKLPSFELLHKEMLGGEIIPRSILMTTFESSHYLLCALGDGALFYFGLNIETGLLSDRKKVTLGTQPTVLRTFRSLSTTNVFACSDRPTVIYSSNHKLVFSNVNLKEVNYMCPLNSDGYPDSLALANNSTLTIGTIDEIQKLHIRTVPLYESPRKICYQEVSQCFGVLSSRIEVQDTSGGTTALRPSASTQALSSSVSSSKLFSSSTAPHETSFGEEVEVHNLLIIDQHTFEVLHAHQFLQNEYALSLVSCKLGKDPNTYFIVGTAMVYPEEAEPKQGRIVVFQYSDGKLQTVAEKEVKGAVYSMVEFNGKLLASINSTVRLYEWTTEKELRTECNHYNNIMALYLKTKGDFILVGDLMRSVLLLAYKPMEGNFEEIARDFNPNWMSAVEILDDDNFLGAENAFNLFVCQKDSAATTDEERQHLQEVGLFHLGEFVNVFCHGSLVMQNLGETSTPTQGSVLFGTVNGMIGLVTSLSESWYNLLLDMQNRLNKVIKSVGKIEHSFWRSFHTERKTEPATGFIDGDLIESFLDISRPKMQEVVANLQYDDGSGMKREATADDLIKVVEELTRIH
For assay [4], the target named is T1, IRAK4. Nature of the assay: IRAK4 MSD degradation in OCI-LY10. It counts as cell-based. Particulars: MSD. The method in brief:
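Remaining IRAK4 quantified by electrochemiluminescent MSD sandwich assay with two anti-IRAK4 antibodies. Compounds were dosed as 8 concentrations in 1:3 steps from a 1 to 10 μM final top on OCI-LY10 cells, incubated 4 to 24 h at 37° C. under 5% CO2. DC50 fitted with a three-parameter logistic curve.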

The target in assay [5] is T1, IRAK4. Description: IRAK4 degradation in OCI-LY10 (DC50). It counts as cell-based.
In assay [6] the test system is OCI-LY10. Description: OCI-LY10 viability, CTG. The assay is classed as cell-based.
In the next assay the test system is OCI-LY3. Nature of the assay: OCI-LY3 viability, CTG. Particulars: Homo sapiens, MYD88 MUT. The assay is classed as cell-based.
For assay [7], the system named is OCI-LY10. Description: CTG Cell Viability Assay - OCI-LY10. The following applies: OCI-LY10, 4 days, read-out: CTG Cell Viability Assay - OCI-LY10: Average external-IC50. It counts as cell-based, human. The method in brief: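 Viability read by CellTiter-Glo luminescence after 4 days at 37° C under 5% CO2 with compound (top 10 μM final, 1:3 steps, 9 doses, DMSO 0.2%). Three-parameter logistic fit gave IC50.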

The subject of another assay is SU-DHL2. Nature of the assay: SU-DHL2 viability, CTG. The assay is classed as cell-based.
Assay [8] has as its target T1, IRAK4. Description: hPBMC IRAK4 degradation flow assay. It counts as cell-based. The following applies: hPBMC monocyte, 20 hr, flow assay; read-out: IRAK4 degradation in hPBMC monocyte at 20 hr: Average external Abs DC50. The method in brief:
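Thawed human PBMCs treated with 10-point, 5-fold compound dilutions (0.1% DMSO) at 37° C. for 20 hours or 4 hours. IRAK4 measured by flow MFI in CD14+ monocytes and CD14− lymphocytes, normalized to DMSO and 10 μM 20-hour control; DC50 and max degradation from 4-parameter logistic fit.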

In a further assay the test system is IL-6. Description: IL-6 secretion in hPBMC using R848 stimulation. It counts as cell-based, human. The following applies: hPBMC, R848 as stim, t = 20 h.
A further assay relates to OCI-LY10 tumor xenograft. Description: OCI-LY10 tumor xenograft, tumor volume. The assay is classed as in vivo. The following applies: PO.
Assay [9] has as its target T2, IKAROS. Nature of the assay: Ikaros degradation in OCI-LY10 tumor xenograft. It counts as in vivo. The following applies: sample time 24 h.
The target in assay [10] is T3, AIOLOS. Nature of the assay: Aiolos degradation in OCI-LY10 tumor xenograft. The assay is classed as in vivo. The following applies: sample time 24 h.
The target of assay [11] is T1, IRAK4. Description: IRAK4 degradation in OCI-LY10 tumor xenograft. It counts as in vivo. The following applies: for IRAK4 ↓ (% Control): OCI-LY10 tumor xenograft, sample time 24 h.
In another assay the test system is IFIT3. Description: Interferon response IFIT3 in OCI-LY10 tumor xenograft. The assay is classed as in vivo. The following applies: sample time 24 h.
A further assay deals with IFIT1. Description: Interferon response IFIT1 in OCI-LY10 tumor xenograft. The assay is classed as in vivo. The following applies: sample time 24 h.
Setting [12] is: Homo sapiens, U2932, MYD88 WT, read-out: U2932 CTG IC50.
Setting [13] is: Homo sapiens, OCI-LY19, MYD88 WT, read-out: OCI-LY19 CTG IC50.
The mark [14] stands for this setting: Homo sapiens, SU-DHL-6, MYD88 WT, read-out: SU-DHL6 CTG IC50.
[15] abbreviates: OCI-LY10, 4 hrs, read-out: IRAK4 MSD degradation in OCI-LY10 at 4 hrs: Average external-Abs DC50.
Setting [16] is: OCI-LY10, 24 hrs, read-out: IRAK4 MSD degradation in OCI-LY10 at 24 hrs: Average external-Abs DC50.
Where [17] appears, read: Homo sapiens, OCI-Ly10, MYD88 MUT, read-out: OCI-LY10 CTG IC50.
[18] abbreviates: Homo sapiens, SU-DHL-2, MYD88 MUT, read-out: SU-DHL2 CTG IC50.
Setting [19] is: read-out: IRAK4 Degradation in OCI-LY10, DC50.

T2 sequence (Q13422 whole entry): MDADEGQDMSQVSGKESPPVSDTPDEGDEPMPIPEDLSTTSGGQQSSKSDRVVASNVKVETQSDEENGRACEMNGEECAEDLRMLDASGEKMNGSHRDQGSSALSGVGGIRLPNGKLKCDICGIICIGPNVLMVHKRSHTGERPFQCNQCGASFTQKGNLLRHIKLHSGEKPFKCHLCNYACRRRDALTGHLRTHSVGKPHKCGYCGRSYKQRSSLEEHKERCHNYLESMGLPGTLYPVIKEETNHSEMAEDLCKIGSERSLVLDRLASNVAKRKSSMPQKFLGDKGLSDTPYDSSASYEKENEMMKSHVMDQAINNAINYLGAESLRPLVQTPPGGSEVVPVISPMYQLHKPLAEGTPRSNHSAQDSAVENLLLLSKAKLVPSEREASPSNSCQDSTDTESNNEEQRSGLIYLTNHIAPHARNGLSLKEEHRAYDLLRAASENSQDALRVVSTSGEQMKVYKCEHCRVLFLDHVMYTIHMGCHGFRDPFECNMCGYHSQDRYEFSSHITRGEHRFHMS
T2 sequence (Q96SW2 whole entry): as the sequence (Q96SW2 whole entry) above
T2 sequence (Q16531 whole entry partner): as the sequence (Q16531 whole entry partner) above

For orientation: IC50 means the concentration at which inhibition is half-maximal. The term DC50 denotes the concentration at which degradation of the target reaches its halfway point. Take `CN(CCCOCCNc1cccc2c1C(=O)N(C1CCC(=O)NC1=O)C2=O)C[C@H]1CC[C@H](n2cc(NC(=O)c3coc(-c4ccnc(NCC5CC5)c4)n3)c(C(F)F)n2)CC1` (stereo partly shown) [I-168]: the IC50 in the assay on U2932 (setting [12]) is 410 nM; in the assay with OCI-LY19 (setting [13]), 430 nM; in the assay on SU-DHL6 (setting [14]) it was 1900 nM; with OCI-LY10 [6] (setting [17]), 31 nM; in the assay with OCI-LY3, 290 nM; in the assay with OCI-LY10 [7] (Homo sapiens, OCI-Ly10, 96 h) it was < 50 nM. For the same compound, in the assay with SU-DHL2 (setting [18]), the IC50 stood at 64 nM. Moreover, the DC50 on IRAK4 [1] was 78 nM; on IKAROS [2], 5 nM; on AIOLOS [3], 5 nM; at IRAK4 [4] (setting [15]), 10 to 100 nM; at IRAK4 [4] (setting [16]) it was < 10 nM; on IRAK4 [5] (read-out: IRAK4 OCI-LY10 DC50), 20 nM.
As for `CN(C[C@H]1CC[C@H](n2cc3cc(NC(=O)c4cccc(C(F)(F)F)n4)c(C(C)(C)O)cc3n2)CC1)C1CCN(Cc2cccc3c2n(C)c(=O)n3C2CCC(=O)NC2=O)CC1` (stereo partly shown) [I-191], the IC50 with U2932 (Homo sapiens, U2932, MYD88 WT Lines, read-out: U2932 Viability, CTG IC50) was > 10000 nM; in the assay on OCI-LY19 (Homo sapiens, OCI-LY19, MYD88 WT Lines, read-out: OCI-LY19 Viability, CTG IC50), > 10000 nM; in the assay on SU-DHL6 (Homo sapiens, SU-DHL-6, MYD88 WT Lines, read-out: SU-DHL6 Viability, CTG IC50), 5600 nM; with IL-6 (Homo sapiens, 20 h) it was 1 to 10 nM; with OCI-LY10 [6] (Homo sapiens, OCI-Ly10, MYD88 Mutant Lines, read-out: OCI-LY10 Viability, CTG IC50), > 10000 nM; in the assay with OCI-LY10 [7] (Homo sapiens, OCI-Ly10, 96 h), > 1000 nM. Besides, the IC50 in the assay on SU-DHL2 (Homo sapiens, SU-DHL-2, MYD88 Mutant Lines, read-out: SU-DHL2 Viability, CTG IC50) was > 10000 nM. The DC50 was < 10 nM on IRAK4 [8], < 10 nM on IRAK4 [4] (setting [15]) and 4 nM on IRAK4 [5] (setting [19]).
`O=C1CCC(N2C(=O)c3cccc(NCCCOC4CCN(C[C@H]5CC[C@H](n6cc(NC(=O)c7cnn8ccc(N9CCOCC9)nc78)c(C(F)F)n6)CC5)CC4)c3C2=O)C(=O)N1` (stereo partly shown) [I-208]: the concentration for half-maximal inhibition (IC50) in the assay on U2932 (setting [12]) is 1800 nM; in the assay with OCI-LY19 (setting [13]) it was 1700 nM; with SU-DHL6 (setting [14]), 833 nM; in the assay on OCI-LY10 [6] (setting [17]) it was 36 nM; in the assay on OCI-LY3, 3000 nM; with OCI-LY10 [7] (Homo sapiens, OCI-Ly10, 96 h) it was < 50 nM. Further, the IC50 in the assay with SU-DHL2 (setting [18]) was found to be 366 nM. Besides, the DC50 at IRAK4 [1] was 130 nM; at IKAROS [2], 3 nM; on AIOLOS [3] it was < 3 nM; at IRAK4 [4] (setting [15]), 10 to 100 nM; on IRAK4 [5] (read-out: IRAK4 OCI-LY10 DC50), 20 nM. Also, the “Regression of OCI-LY10 tumor xenograft” value in the assay with OCI-LY10 tumor xenograft (single agent, QD, 24, 72, and 240 mg/kg (FIG. 21)) is recorded as “with regression”; in the assay with OCI-LY10 tumor xenograft (single agent, QD, 24, 72, and 240 mg/kg (FIG. 21), listed as 1-208), “drives regression”. In addition, the “Ikaros ↓ (% Control)” value on IKAROS [9] (24 mg/kg PO QD) stood at 46.3 % Control; on IKAROS [9] (72 mg/kg PO QD) it was 71.0 % Control; at IKAROS [9] (240 mg/kg PO QD), 81.2 % Control. Further, the “Aiolos ↓ (% Control)” value on AIOLOS [10] (24 mg/kg PO QD) was determined as 30.9 % Control; on AIOLOS [10] (72 mg/kg PO QD), 62.4 % Control; on AIOLOS [10] (240 mg/kg PO QD), 68.6 % Control. Further, the figures for the “IRAK4 ↓ (% Control)” value at IRAK4 [11] (24 mg/kg PO QD), on IRAK4 [11] (72 mg/kg PO QD) and on IRAK4 [11] (240 mg/kg PO QD) were 57.8 % Control, 78.7 % Control and 86.5 % Control, respectively. Also, the “Interferon Response IFIT3 Increase (Fold)” value in the assay with IFIT3 (24 mg/kg PO QD) is >43.1 Fold; in the assay on IFIT3 (72 mg/kg PO QD), >64.0 Fold; in the assay on IFIT3 (240 mg/kg PO QD) it was >59.7 Fold. In addition, the “Interferon Response IFIT1 Increase (Fold)” value is listed as >24.4 Fold with IFIT1 (24 mg/kg PO QD), >41.5 Fold in the assay on IFIT1 (72 mg/kg PO QD) and >38.7 Fold in the assay with IFIT1 (240 mg/kg PO QD).
`Cn1c(=O)n([C@H]2CCC(=O)NC2=O)c2cccc(CCCOC3CCN(CC4CCC(n5cc(NC(=O)c6cnn7ccc(N8CCOCC8)nc67)c(C(F)F)n5)CC4)CC3)c21` (stereo partly drawn) [I-257, N-[3-(difluoromethyl)-1-[4-[[4-[3-[1-[(3S)-2,6-dioxo-3-piperidyl]-3-methyl-2-oxo-benzimidazol-4-yl]propoxy]-1-piperidyl]methyl]cyclohexyl]pyrazol-4-yl]-5-morpholino-pyrazolo[1,5-a]pyrimidine-3-carboxamide]: the half-inhibitory concentration (IC50) in the assay on U2932 (MYD88 WT Lines, read-out: U2932 Viability, CTG IC50) was > 10000 nM; in the assay on U2932 (MYD88 WT, read-out: U2932 CTG IC50), 10000 nM; in the assay with OCI-LY19 (MYD88 WT Lines, read-out: OCI-LY19 Viability, CTG IC50), 4700 nM; in the assay on OCI-LY19 (MYD88 WT, read-out: OCI-LY19 CTG IC50), 4700 nM; with SU-DHL6 (MYD88 WT Lines, read-out: SU-DHL6 Viability, CTG IC50), 5600 nM; in the assay with SU-DHL6 (MYD88 WT, read-out: SU-DHL6 CTG IC50), 5600 nM. For the same compound, the concentration for half-maximal inhibition (IC50) in the assay with IL-6 is < 1 nM; in the assay on OCI-LY10 [6] (MYD88 MUT, read-out: OCI-LY10 CTG IC50) it was 1200 nM; with OCI-LY10 [6] (MYD88 Mutant Lines, read-out: OCI-LY10 Viability, CTG IC50) it was 1200 nM; with OCI-LY10 [7] it was > 1000 nM; in the assay with SU-DHL2 (MYD88 MUT, read-out: SU-DHL2 CTG IC50) it was 6900 nM; with SU-DHL2 (MYD88 Mutant Lines, read-out: SU-DHL2 Viability, CTG IC50), 6900 nM. Further, the half-maximal degradation concentration (DC50) at IRAK4 [1] was 3 nM; on IRAK4 [8] it was < 10 nM; at IRAK4 [4] (setting [15]), < 10 nM; at IRAK4 [4] (setting [16]) it was < 10 nM; at IRAK4 [5] (setting [19]) it was 5 nM; at IRAK4 [5] (read-out: IRAK4 OCI-LY10 DC50), 5 nM. Moreover, the “Regression of OCI-LY10 tumor xenograft” value in the assay on OCI-LY10 tumor xenograft (BID, 150 mg/kg (FIG. 18)) was “without regression”; with OCI-LY10 tumor xenograft (BID, 150 mg/kg (FIG. 18), listed as 1-257) it was “without causing regression”. Also, the “IRAK4 degradation in OCI-LY10 tumor xenograft” value on IRAK4 [11] (PO, BID (FIG. 18)) turned out to be 90%.
